Data published in patent US20250214973A1, “1,4,5-TRISUBSTITUTED-1,2,3-TRIAZOLES AND USES THEREOF” (UNIVERSITY OF PUERTO RICO, priority 2022, published 2025).

Columns and labels:
Rac1 = biological target: T1, Rac1 (Homo sapiens, UniProt P63000); assay: Rac activation assay (PAK-PBD pulldown); assay type: cell-based; conditions: 250 nM, 24 hours, MDA-MB-231
T1 construct: endogenous in cells; host or cells: MDA-MB-231
Description: MDA-MB-231 breast cancer cells were treated for 24 hours with 0 or 250 nM 4c. Cells were lysed and equal amounts of proteins were subjected to pull-down assays using the p21-binding domain of PAK to isolate GTP bound Rac. Top panel, pulldown showing GTP bound Rac1; middle panel, total Rac1 in lysates; bottom panel, actin as a loading control.
MDA-MB-231 triple negative breast cancer cells were seeded at equal density and treated with vehicle or Compound 4c for 24 hrs at various concentrations. Rac-GTP was detected using Rac Activity Assay, as per manufacturer's instructions (Cell Signaling). Briefly, total cell lysates were quantified and added equally to Pak-PBD beads. After 1 hr of incubation, beads were washed and Rac1-GTP (in pellets) or total Rac1 (in cell lysates) was detected by western blot using Rac1 antibody. (n=3 biological replicates).

Panc-1 [1] = assay: Wound healing assay; assay type: cell-based; conditions: Homo sapiens, 24 hr, read-out: inhibition of Panc-1 cell migration
Description: (§1) Mircrographs were digitally acquired at 0, 12, and 24 hours and the area of the wound quantified relative to the distance at time 0. n=3.
Panc-1 cells plated at equal density were subjected to a scratch in the center and treated with 4c at 0, 150 nM, 250 nM, or 500 nM. Mircrographs were digitally acquired at 0, 12, and 24 hours and the area of the wound quantified relative to the distance at time 0. n=3.

MDA-MB-231 = assay: Cell viability assay (MTT); assay type: cell-based; conditions: Homo sapiens, MDA-MB-231
Description: Cells plated at equal density were treated at 500 nM of compounds. […]
(§2) Cells plated at equal density were treated at 250 nM of 4c at 250 nM.
(§3) Data from 3 biologic replicates each with 2 technical replicates. Four parameter dose-response curves generated using GraphPad Prism are shown.
Cell viability relative to vehicle (100%) is shown.
(§4) […] Using CellTiter 96 Non-Radioactive Cell Proliferation Assay (Promega, Corp.) according to manufactures' instructions, formazan was used as an indicator of viable cells at an absorbance 570 nm in a Tecan Microplate Reader M100. Data was calculated as fold change from vehicle and fitted using the 4′parameter logic nonlinear regression model in GraphPad Prism software. (n=3 biologic replicates: with 3 technical replicates each).
A range of compounds were tested by MTT assays for cell viability in MDA-MB-231 triple negative breast cancer (TNBC) cells and MDA-MB-435 HER2++ cancer cells.

Panc-1 [2] = assay: Cell viability assay (MTT); assay type: cell-based; conditions: Homo sapiens, 120 hours, 0-1000 nM
Description: as §4

MDA-MB-435 = assay: Cell viability assay (MTT); assay type: cell-based, human; conditions: Homo sapiens, MDA-MB-435
Description: Cells plated at equal density were treated at 500 nM of compounds. After 72 hours, cell viability was measured by a MTT assay. n=3; * p<0.05, ** p<0.01, *** p<0.001.
as §2, §3
[…]. GI50 was calculated using Graph pad Prism.
as §4
A range of compounds were tested by MTT assays for cell viability in MDA-MB-231 triple negative breast cancer (TNBC) cells and MDA-MB-435 HER2++ cancer cells. […].

[3] = system: RAW264.7 macrophage cell line; assay: Wound healing assay; assay type: cell-based, murine; conditions: Mus musculus, read-out: inhibition of wound closure, RAW264.7
Description: as §1
Murine macrophage cell line, RAW264.7, plated at equal density were subjected to a scratch in the center and treated with 4c at 0, 150 nM, 250 nM, or 500 nM. Mircrographs were digitally acquired at 0, 12, and 24 hours and the area of the wound quantified relative to the distance at time 0. n=3.

CCn1c2ccccc2c2cc(-n3nnc(C(O)c4cccc(OC)c4)c3-c3ccccc3)ccc21 (stereo not drawn) [Compound 4c, (1-(9-ethyl-9H-carbazol-3-yl)-5-phenyl-1H-1,2,3-triazol-4-yl) (3-methoxyphenyl) methanol]
reduction of Rac1 activation by GTP loading (Rac1): 85%
inhibition at […] (Panc-1 [1]; 250 nM): ~40%
inhibition at 0.5 µM (Panc-1 [1]; 500 nM): 75%
cytotoxicity at 0.5 µM (MDA-MB-231; 500 nM, 72 hours, read-out: inhibition of MDA-MB-231 cell viability): < 50%
GI50 (MDA-MB-231; summary over breast cancer cell lines, read-out: GI50 for breast cancer cell viability inhibition): ~300 nM
GI50 (Panc-1 [2]): 235 nM
inhibition at […] (MDA-MB-435; 250 nM (FIG. 1C), read-out: inhibition of MDA-MB-435 cells): ~60%
cytotoxicity at 0.5 µM (MDA-MB-435; 500 nM, 72 hours, read-out: decrease in cell viability, MDA-MB-435): ~80%
GI50 (MDA-MB-435; 120 hours, 0-1000 nM, read-out: GI50, MDA-MB-435): 261 nM
inhibition at 0.15 µM ([3]; 150 nM): 50%
inhibition at […] ([3]; 250 nM): 80%
inhibition at 0.5 µM ([3]; 500 nM): 90%
